In US20100267561A1, “HERBICIDAL PYRIDAZINONE DERIVATIVES” (priority 2007, published 2010):

Columns and labels:
Format in all cases: in vivo
[1] = tested on: barnyardgrass (Echinochloa crus-galli); test: Test A pre-/postemergence plant response
Outline: (§1)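 Ratings run 0–100 (100 = complete control), assigned visually against untreated controls roughly 10 days after treatment in a greenhouse. Compounds, formulated in non-phytotoxic solvent containing surfactant, were applied as a soil-directed preemergence spray and concurrently postemergence to one- to two-leaf plants 2–10 cm tall.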

corn (Zea mays) = test: Test A pre-/postemergence plant response
Outline: as §1

[2] = tested on: large crabgrass (Digitaria sanguinalis); test: Test A pre-/postemergence plant response
Outline: as §1

[3] = tested on: morningglory (Ipomoea coccinea); test: Test A pre-/postemergence plant response
Outline: as §1

[4] = tested on: pigweed (Amaranthus retroflexus); test: Test A pre-/postemergence plant response
Outline: as §1

[5] = tested on: velvetleaf (Abutilon theophrasti); test: Test A pre-/postemergence plant response
Outline: as §1

[6] = tested on: wheat (Triticum aestivum); test: Test A pre-/postemergence plant response
Outline: as §1

[7] = tested on: barnyardgrass (Echinochloa crus-galli); test: Test B flooded paddy test plant response
Outline: (§2)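 2-leaf plants; pots flooded 3 cm above soil; compound added to paddy water; depth maintained. Greenhouse 13–15 d. Visual rating vs controls, 0 (no effect) to 100 (complete control); dash = no result.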

[8] = tested on: ducksalad (Heteranthera limosa); test: Test B flooded paddy test plant response
Outline: as §2

rice (Oryza sativa) = test: Test B flooded paddy test plant response
Outline: as §2

[9] = tested on: umbrella sedge (Cyperus difformis); test: Test B flooded paddy test plant response
Outline: as §2

[10] = Postemergence, 31 g ai/ha, 0 to 100 scale (0 no effect, 100 complete control)
[11] = Postemergence, 125 g ai/ha, 0 to 100 scale, 0 no effect, 100 complete control
[12] = Preemergence, 31 g ai/ha, 0 to 100 scale, 0 is no effect, 100 is complete control
[13] = Preemergence, 125 g ai/ha, 0 to 100 scale (0 no effect, 100 complete control)
[14] = Flood (flooded paddy test), 62 g ai/ha, scale 0 to 100, 0 no effect, 100 complete control
[15] = Flood (flooded paddy test), 250 g ai/ha, scale 0 to 100, 0 no effect, 100 complete control
[16] = Postemergence, 500 g ai/ha, 0 to 100 scale, 0 no effect, 100 complete control
[17] = Preemergence, 500 g ai/ha, 0 to 100 scale (0 no effect, 100 complete control)
[18] = Flood (flooded paddy test), 125 g ai/ha, scale 0 to 100, 0 no effect, 100 complete control
[19] = Flood, 31 g ai/ha, scale 0 to 100

C#CCOC(=O)Oc1cnn(C)c(=O)c1-n1nc(-c2ccc(Cl)cc2)cc1C [Compound 58]
Plant response rating, Barnyardgrass [1, 10]: 0 | Plant response rating, Barnyardgrass [1, 11]: 80 | Plant response rating, Barnyardgrass [1, 12]: 50 | Plant response rating, Barnyardgrass [1, 13]: 100 | Plant response rating, Corn (corn (Zea mays); [10]): 0 | Plant response rating, Corn (corn (Zea mays); [11]): 60 | Plant response rating, Corn (corn (Zea mays); [12]): 0 | Plant response rating, Corn (corn (Zea mays); [13]): 20 | Plant response rating, Crabgrass, Large [2, 10]: 0 | Plant response rating, Crabgrass, Large [2, 11]: 70 | Plant response rating, Crabgrass, Large [2, 12]: 60 | Plant response rating, Crabgrass, Large [2, 13]: 90 | Plant response rating, Morningglory [3, 10]: 0 | Plant response rating, Morningglory [3, 11]: 0 | Plant response rating, Morningglory [3, 12]: 0 | Plant response rating, Morningglory [3, 13]: 0 | Plant response rating, Pigweed [4, 10]: 0 | Plant response rating, Pigweed [4, 11]: 0 | Plant response rating, Pigweed [4, 12]: 0 | Plant response rating, Pigweed [4, 13]: 0 | Plant response rating, Velvetleaf [5, 10]: 0 | Plant response rating, Velvetleaf [5, 11]: 0 | Plant response rating, Velvetleaf [5, 12]: 0 | Plant response rating, Velvetleaf [5, 13]: 0 | Plant response rating, Wheat [6, 10]: 0 | Plant response rating, Wheat [6, 11]: 60 | Plant response rating, Wheat [6, 12]: 20 | Plant response rating, Wheat [6, 13]: 70 | Plant response rating, Barnyardgrass [7, 14]: 30 | Plant response rating, Barnyardgrass [7, 15]: 70 | Plant response rating, Ducksalad [8, 14]: 0 | Plant response rating, Ducksalad [8, 15]: 45 | Plant response rating, Rice (rice (Oryza sativa); [14]): 0 | Plant response rating, Rice (rice (Oryza sativa); [15]): 60 | Plant response rating, Sedge, Umbrella [9, 14]: 0 | Plant response rating, Sedge, Umbrella [9, 15]: 0

Cn1ncc(O)c(-c2nn(-c3ccc(Cl)cc3)cc2Br)c1=O [Compound 31]
Plant response rating, Barnyardgrass [1, 11]: 60 | Plant response rating, Barnyardgrass [1, 16]: 90 | Plant response rating, Barnyardgrass [1, 13]: 100 | Plant response rating, Barnyardgrass [1, 17]: 100 | Plant response rating, Corn (corn (Zea mays); [11]): 10 | Plant response rating, Corn (corn (Zea mays); [16]): 70 | Plant response rating, Corn (corn (Zea mays); [13]): 50 | Plant response rating, Corn (corn (Zea mays); [17]): 70 | Plant response rating, Crabgrass, Large [2, 11]: 60 | Plant response rating, Crabgrass, Large [2, 16]: 90 | Plant response rating, Crabgrass, Large [2, 13]: 100 | Plant response rating, Crabgrass, Large [2, 17]: 100 | Plant response rating, Morningglory [3, 11]: 0 | Plant response rating, Morningglory [3, 16]: 0 | Plant response rating, Morningglory [3, 13]: 0 | Plant response rating, Morningglory [3, 17]: 0 | Plant response rating, Pigweed [4, 11]: 0 | Plant response rating, Pigweed [4, 16]: 0 | Plant response rating, Pigweed [4, 13]: 0 | Plant response rating, Pigweed [4, 17]: 20 | Plant response rating, Velvetleaf [5, 11]: 0 | Plant response rating, Velvetleaf [5, 16]: 0 | Plant response rating, Velvetleaf [5, 13]: 0 | Plant response rating, Velvetleaf [5, 17]: 0 | Plant response rating, Wheat [6, 11]: 40 | Plant response rating, Wheat [6, 16]: 60 | Plant response rating, Wheat [6, 13]: 60 | Plant response rating, Wheat [6, 17]: 90 | Plant response rating, Barnyardgrass [7, 14]: 0 | Plant response rating, Barnyardgrass [7, 18]: 0 | Plant response rating, Barnyardgrass [7, 15]: 0 | Plant response rating, Barnyardgrass [7, 19]: 0 | Plant response rating, Ducksalad [8, 14]: 0 | Plant response rating, Ducksalad [8, 18]: 0 | Plant response rating, Ducksalad [8, 15]: 0 | Plant response rating, Ducksalad [8, 19]: 0 | Plant response rating, Rice (rice (Oryza sativa); [14]): 0 | Plant response rating, Rice (rice (Oryza sativa); [18]): 0 | Plant response rating, Rice (rice (Oryza sativa); [15]): 0 | Plant response rating, Rice (rice (Oryza sativa); [19]): 0 | Plant response rating, Sedge, Umbrella [9, 14]: 0 | Plant response rating, Sedge, Umbrella [9, 18]: 0 | Plant response rating, Sedge, Umbrella [9, 15]: 0 | Plant response rating, Sedge, Umbrella [9, 19]: 0
